Consider five compounds from paper PMC12024814, “Ruthenium(II)–Arene Complexes with a 2,2′-Bipyridine Ligand as Anti-Aβ Agents” (Biomolecules, 2025).

For series [1], the target named is T1, human serum albumin (HSA) (Homo sapiens, UniProt P02768).
T1 construct: purchased Sigma Aldrich
Put plainly: Protein binding assay, warfarin (WF) displacement, Sudlow site I. The following applies: warfarin probe, Stern–Volmer slope, HSA and WF 2.5 μM, PBS. On the procedure: (§1) A stock of human serum albumin (HSA, 100 μM) was prepared using PBS, while the probes dansyl glycine (DG) and warfarin (WF) were prepared by initially dissolving them in DMSO and diluting them with PBS until the concentration of DMSO was less than 5%. Solutions of each Ru complex were prepared by initial dissolution in DMSO and subsequent dilution using PBS until the concentration of DMSO was less than 5%. The total volume of each sample was 3.5 mL, where the concentration of HSA and DG/WF was 2.5 μM throughout the experiment. The Ru concentration ranged from 0 μM to 62.5 μM, with an increase of 12.5 μM for each sample. In total, six samples were prepared for each protein binding assay. After preparation, the samples were placed on an IKA Trayster inversion mixer (60 rpm) for 30 s and incubated at approximately 28 °C in a Neslab gp-200 for 15 min, before being placed back on the inversion mixer (60 rpm) for 30 s. All fluorescence measurements for the protein binding assay were made using a PTI QuantiMaster 50, and the samples were measured at room temperature with conditions respective to the probe.
(§2) One important consideration for a potential AD therapeutic is its interaction with serum proteins, specifically albumin (HSA). […] To determine the potential association of the prepared Ru complexes with HSA, a protein binding assay was performed. For these studies, the displacement of two fluorometric probes was used to determine the relative affinity of the Ru complexes for two of the established binding sites on HSA. The first probe, warfarin (WF), an anticoagulant, binds selectively to Sudlow site I on HSA [55], while the second probe used was dansyl glycine (DG), which selectively binds to Sudlow site II on HSA [56]. As these are the two major binding sites on the protein, the probes allow for observations of binding events that occur within these hydrophobic pockets. Individually, the probes were initially mixed with HSA, followed by increasing amounts of the respective Ru complexes, whereby the decrease in fluorescence signals from the respective probes (Figures S22–S30) was used to construct a Stern–Volmer plot, where the slope of the line represents the conditional binding constant (K’) for the respective Ru complexes to each site (Figure 8).

For series [2], the target named is T1, human serum albumin (HSA). Put plainly: Protein binding assay, dansyl glycine (DG) displacement, Sudlow site II. As to conditions: for Log K (DG), conditional binding constant to serum albumin: dansyl glycine probe, Sudlow site II, Stern–Volmer slope, HSA and DG 2.5 μM, PBS; for Ranking HSA: scale 1 to 5 (1 = best, 5 = worst), binding to HSA. Here is the method: as §1, §2

Series [3] is described as follows: Log D7.4 (1-octanol/PBS shake method, absorbance). It counts as physicochemical. As to conditions: 1-octanol/PBS pH 7.4, 50 μM, 2 h mixing at room temperature. Here is the method:
A stock solution was prepared from each Ru complex using dimethyl sulfoxide (DMSO), then diluted to 6 mL and a concentration of 50 μM using phosphate-buffered saline (PBS, pH 7.4), where the final DMSO concentration was less than 5%. The absorbance spectra were measured, then 6 mL of 1-octanol was added, and the resulting biphasic sample was mixed at room temperature for 2 h using an IKA Trayster inversion mixer (60 rpm). Following this, the aqueous layer was extracted, and its absorbance spectra were measured. Log D values were determined using the equation below: LogD7.4=logAbs @ λmax before mixing/Abs @ λmax after mixing−1
The ability of Aβ-targeting therapeutics to cross the blood–brain barrier (BBB) is essential for their success. […] For predicting passage across the BBB, one metric that is used is the n-octanol/water partition coefficient of the molecule (log P). For Ru therapeutics, pH can play an important role in the speciation and stability of the complex; therefore, the determination of log D was performed. For such an analysis, the complexes were initially dissolved in DMSO, then diluted using PBS. After initial absorption measurements, the aqueous samples were mixed with an equal volume of 1-octanol for 2 h. The short mixing time is necessary to minimize any ligand exchange that may occur (vide infra), while still providing an accurate value for the partitioning. […] To the best of our knowledge, the partitioning for these complexes has not been evaluated previously, while the values obtained are similar to previous Ru(II)–arene complexes with bidentate ligands.

A short description of series [4]: Aqueous stability by 1H NMR (DMSO-D6/D2O, 37 °C). As to conditions: for incubation time at which new 1H NMR signals (ligand exchange) reached maximum intensity: 25% DMSO-D6 in D2O; for ligand exchange in aqueous media (1H NMR): DMSO-D6/D2O, up to 24 h (RuBtB in 75% DMSO). The series is classed as physicochemical. On the procedure:
A common step in the mechanism of action for most metal-based drugs is ligand exchange around the metal center. This promotes the coordination of the complex to the penultimate biological target, eliciting the desired response. […] Therefore, to evaluate the relative stability of the prepared complexes, ^1H NMR studies were performed. Following complete dissolution of the complexes in deuterated DMSO, dilution using D2O to a final DMSO concentration of 25% provided aqueous samples that were measured following prolonged incubation at 37 °C.
For the majority of the complexes, new signals emerged in close proximity to those of the parent complex, even without any incubation. […] A previously study monitoring ligand exchange for RuB in the presence of several proteins saw that neither the arene ring nor the 2,2-bipyridine ligands were lost, but rather the labile monodentate chloride ligand was replaced.

T1 sequence (P02768 25-609): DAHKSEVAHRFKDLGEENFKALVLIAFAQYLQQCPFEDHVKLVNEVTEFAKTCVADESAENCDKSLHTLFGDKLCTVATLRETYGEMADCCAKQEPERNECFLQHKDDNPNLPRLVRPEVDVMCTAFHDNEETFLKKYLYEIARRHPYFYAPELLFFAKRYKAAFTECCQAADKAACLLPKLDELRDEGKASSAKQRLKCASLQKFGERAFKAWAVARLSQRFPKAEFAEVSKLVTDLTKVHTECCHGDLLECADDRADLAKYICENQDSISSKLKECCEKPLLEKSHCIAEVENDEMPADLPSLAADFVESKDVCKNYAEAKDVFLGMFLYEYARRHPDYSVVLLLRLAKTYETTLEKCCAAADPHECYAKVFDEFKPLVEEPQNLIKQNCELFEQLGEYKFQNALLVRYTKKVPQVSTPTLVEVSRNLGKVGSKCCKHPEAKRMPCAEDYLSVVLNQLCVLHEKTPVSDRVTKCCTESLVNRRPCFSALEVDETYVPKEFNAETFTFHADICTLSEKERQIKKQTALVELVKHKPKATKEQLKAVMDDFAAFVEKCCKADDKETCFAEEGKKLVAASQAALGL

As to `Cc1ccc(C(C)C)cc1.F[P-](F)(F)(F)(F)F.[Cl-].[Ru+2].c1ccc(-c2ccccn2)nc1` [RuB, [Ru(η^6-p-cymene)(2,2′-bipyridine)Cl]PF6], in series [1], the “Log K (WF), conditional binding constant to serum albumin” value (shortened to “Log K (WF)”) is recorded as 4.24. Also, in series [2], the “Log K (DG), conditional binding constant to serum albumin” value (from here on “Log K (DG)”) was 3.96 and the “Ranking HSA” value amounted to 3. Besides, the “Log D7.4” value in series [3] is −1.90 ± 0.15. In series [4], the “incubation time at which new 1H NMR signals (ligand exchange) reached maximum intensity” value was 1 h.
Consider `Cc1ccc(C(C)C)cc1.Cc1ccnc(-c2cc(C)ccn2)c1.F[P-](F)(F)(F)(F)F.[Cl-].[Ru+2]` [RuBMe, [Ru(η^6-p-cymene)(4,4′-dimethyl-2,2′-bipyridine)Cl]PF6], for which the “Log K (WF)” value in series [1] stood at 4.56. In addition, in series [2], the “Log K (DG)” value amounted to 3.99 and the “Ranking HSA” value is reported as 4. Besides, in series [3], the “Log D7.4” value is recorded as −0.99 ± 0.13. The “incubation time at which new 1H NMR signals (ligand exchange) reached maximum intensity” value in series [4] was determined as 1 h.
As for “[Ru(η^6-p-cymene)(4,4′-di-tert-butyl-2,2′-bipyridine)Cl]PF6 [RuBtB]”, in series [2], the “Log K (DG)” value was found to be 3.85 and the “Ranking HSA” value is given as 1. The “Log D7.4” value in series [3] is 0.84 ± 0.03. Besides, the “ligand exchange in aqueous media (1H NMR)” value in series [4] is reported as “no new signals emerged even after 24 h of incubation”.
In the case of “[Ru(η^6-p-cymene)(4,4′-diamino-2,2′-bipyridine)Cl]PF6 [RuBA]”, the “Log K (WF)” value in series [1] came out at 4.38. In series [2], the “Log K (DG)” value was 4.07 and the “Ranking HSA” value was 5. In addition, in series [3], the “Log D7.4” value was −0.55 ± 0.03. In addition, the “ligand exchange in aqueous media (1H NMR)” value in series [4] is “particularly rapid”.
As for “[Ru(η^6-p-cymene)(4,4′-dimethoxy-2,2′-bipyridine)Cl]PF6 [RuBMeO]”, the “Log K (WF)” value in series [1] is 4.00. Further, in series [2], the “Log K (DG)” value is reported as 3.91 and the “Ranking HSA” value came to 2. Besides, the “Log D7.4” value in series [3] is listed as −0.74 ± 0.08. Moreover, in series [4], the “incubation time at which new 1H NMR signals (ligand exchange) reached maximum intensity” value was determined as 1 h.
